Laboratory results taken from article PMC4694766, “Modeling-Enabled Characterization of Novel NLRX1 Ligands” (PLoS ONE, 2015).
Entries after “also recorded” stand apart in the source; their conditions may differ. Read-outs that look alike come from different tables or passages of the source. One block for each molecule: values may come before it.

How the values were obtained:
cNLRX1 (wild type) = biological target: T1, cNLRX1 (wild type) (Homo sapiens, UniProt Q86UT6); assay: SPR (Biacore T200) direct binding to immobilized cNLRX1 wild type; settings: for kon: NLRX1: WT, read-out: ka
T1 construct: cNLRX1 (AA 667–970) was cloned into pPinkHC-Alpha-SDK; polyhistidine (6x); made in house; host or cells: Pichia pastoris (Strain 4: ade2, prb1, pep4)
Description: White colonies on drop adenine media were screened for protein expression via small-scale induction and both pellets and supernatants were screened for expression via western blot using an anti-polyhistidine (6x) antibody (Immunology Consultants Laboratory, Inc). […] Every 24 hours post induction cells were fed 10 mL of methanol and 10% filter sterilized sorbitol for 4 days post induction. Cells were subsequently harvested at 10,000 x g for 15 min and were either used immediately or stored at -80°C.
Cells were re-suspended in 40 mL of ice-cold lysis buffer (50mM Sodium Phosphate, 200mM sodium chloride, 25mM Sucrose, 0.1% T-100, pH = 7.2) and sonicated 8 times at max amplitude using a 15 sec ON 45 sec OFF cycle. Lysed cells were centrifuged at 15,000 x g for 30 min at 4°C. Supernatant were loaded onto a 150 mL Super-loop and purified using a programmed immobilized metal affinity chromatography gradient protocol on the AKTA prime plus. Bound protein was washed with 40 column volumes of wash buffer (50 mM sodium phosphate buffer, 300 mM sodium chloride, 20 mM imidazole, pH 8.0) and eluted in 1 mL fractions over a 0.02-1M imidazole 40 mL gradient. Purity was assessed via SDS-PAGE. Proteins were further purified via gel filtration chromoatograhy using a Superdex75 column (16/600) in 50 mM sodium phosphate, 300 mM sodium chloride pH 8.0. […] Protein was dialyzed (1:1000) twice at 4°C for a minimum of 8 hours in appropriate buffers for downstream assays.
(§1) Direct binding experiments were performed via the Biacore T200 Surface Plasmon Resonance (SPR) Technology (Georgetown University). […] The cNLRX1 was immobilized to a CM4 or CM5 chip by amine coupling method. Two adjacent surfaces were activated by injection of a 1:1 (v:v) mixture of 0.1 M N-Hydroxysuccinimide (NHS) and 0.4 M 1-Ethyl-3-(3-dimethyl-aminopropyl)-carbodiimide hydrochloride (EDC) for 720 seconds. Experimental flow cell was then injected with the cNLRX1 that was diluted in 10 mM pH 4.0 sodium acetate buffer to a final concentration of 25 μg/mL. Both experimental and the reference flow cells were inactivated by injection of 1M Ethanolamine-HCl pH 8.0 for 720 seconds.
(§2) Negative control compound, 1,14-bis (3,b-dimethoxypheny1)-tetradecane, was tested at a concentration of 20 μM. Injection time was 60 seconds and dissociation time was 300 seconds. […] Data was analyzed by using the BiaEvaluation software (GE Healthcare) with 1:1 binding model for steady state affinity. Raw data was exported and graphed using Prizm for Mac v5.0d and excel.

[1] = biological target: T2, cNLRX1 ASP677, PHE680, PHE681, and GLU684 to alanine mutant (Mutant) (Homo sapiens, UniProt Q86UT6, D677A/E684A/F680A/F681A); assay: SPR (Biacore T200) direct binding to immobilized Mutant cNLRX1
T2 construct: cNLRX1 (AA 667–970) was cloned into pPinkHC-Alpha-SDK; polyhistidine (6x); made in house
T2 sequence (Q86UT6 667-970 D677A/F680A/F681A/E684A limits assumed): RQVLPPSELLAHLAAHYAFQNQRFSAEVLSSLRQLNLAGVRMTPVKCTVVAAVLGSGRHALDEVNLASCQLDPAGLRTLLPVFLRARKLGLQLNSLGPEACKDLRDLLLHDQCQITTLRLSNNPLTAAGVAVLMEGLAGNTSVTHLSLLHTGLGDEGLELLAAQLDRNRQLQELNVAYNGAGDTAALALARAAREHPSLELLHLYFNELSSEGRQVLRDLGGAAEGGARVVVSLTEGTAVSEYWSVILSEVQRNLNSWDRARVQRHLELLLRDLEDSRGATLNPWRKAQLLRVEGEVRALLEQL
Description: as §1, §2

[2] = test system: DSS-induced colitis and spontaneous pan-enteritis in IL-10−/− mice; settings: cited from earlier work
[3] = test system: NF-κB p65 activity in BMDMs from wild type and Nlrx1-/- mice; assay: NF-κB p65 ELISA (TransAM) on LPS-stimulated bone marrow derived macrophages; assay type: cell-based, mouse; settings: LPS 1μg/ml 12 hours, then 40 μM compound 12 hours
Description: Bone marrow derived macrophages (BMDM)s were isolated from hind legs of wild type and Nlrx1-/- mice in sterile conditions and cultured for 7 days as described. […] Nuclear extraction was performed on colon homogenates using the Active Motif Nuclear Extraction Kit (Carlsbad, CA) as previously described. ELISA was performed on nuclear fractions using the Active Motif TransAM® NF-κB p65 kit according to the manufacturer’s instructions.
The NF-κB activation by NLRX1 ligands was detected and quantified by using the Trans-AM™ NF-κB p65 ELISA-based assay (Active Motif, Carlsbad, CA) as described in the manual of the Active Motif TransAM® NF-κB p65 kit.
Fig 4 Effect of NLRX1 disruption on NF-κB activation in Bone marrow derived macrophage (BMDM). […] Nuclear extraction was performed on colon homogenates using the Active Motif Nuclear Extraction Kit (Carlsbad, CA). ELISA was performed on both cytoplasmic and nuclear fractions using the Active Motif TransAM® NF-κB p65 kit according to the manufacturer’s instructions. Letter superscripts indicate significant (P-value < 0.05) differences by ANOVA.

DSS-induced colitis = settings: for disease activity: 8% DSS six days, PUA 40 mg/kg oral gavage daily vs PBS
Description: C57BL/6J wild-type (WT) and Nlrx1-/- mice (n = 10) ranging from 8–10 weeks of age were administered 8% DSS (average […] molecular weight) in drinking water for six days. Control mice received tap water. […] On day 6, mice were euthanized via carbon dioxide narcosis with secondary cervical dislocation. All mice were weighed and scored daily. Clinical scores were based on physical appearance (0–3), fecal consistency (0–3), presence of rectal bleeding (0–4), and weight loss (0–3) and assigned a compounded score for overall disease activity (0–4).
Total RNA was isolated from whole mouse colon using a Qiagen (Germantown, MD) RNA isolation mini kit. Complementary DNA (cDNA) was generated from each sample (1 μg RNA) using the iScript cDNA synthesis kit (Bio-Rad). Standards were produced through a polymerase chain reaction on the cDNA with Taq DNA polymerase from Invitrogen. The amplicon was purified using the Mini-Elute PCR purification kit from Qiagen. Expression levels were obtained through quantitative real-time PCR on a Bio-Rad (Hercules, CA) CFX 96 Thermal Cycler using the Bio-Rad SYBR Green Supermix. For analysis, the starting amount of anti-microbial peptide cDNA was compared to that of beta-actin, as a control. cDNA concentrations for genes of interest were examined by RT-PCR as described.
Colonic samples were fixed in 10% buffered formalin, embedded in paraffin, processed routinely and sectioned at 5 μm. Sections were stained with hematoxylin and eosin (H&E) and then examined and graded using an Olympus microscope (Olympus America, Center Valley, PA) and ImagePro software. Sections were graded for leukocytic infiltration (0–4), epithelial erosion (0–4) and mucosal thickening (0–4).

PPARγ = settings: cited from earlier work
[4] = biological target: the molecule itself; assay: SEC; Superdex 75 column (16/600) at 1 ml/min in 50 mM sodium phosphate, 300 mM sodium chloride, pH 8; blue dextran run alongside
[5] = Nlrx1-/- mice, day six of DSS, PUA 40 mg/kg oral gavage
[6] = WT mice, day six of DSS, PUA 40 mg/kg oral gavage

Kd (cNLRX1 (wild type)): 13.3 µM
kon (cNLRX1 (wild type); SPR): 3420 M⁻¹ s⁻¹
equilibrium constant of dissociation (KD) [1]: 170 µM
Molecule: CCCCC=CC=CC=CCCCCCCCC(=O)O [ESA, eleostearic acid]
effect on gut inflammation [2]: able to regulate gut inflammation

Kd (cNLRX1 (wild type)): 14.6 µM
kon (cNLRX1 (wild type); SPR): 2320 M⁻¹ s⁻¹
equilibrium constant of dissociation (KD) [1]: 338 µM
Molecule: CCCC\C=C/C=C/C=C\CCCCCCCC(=O)O [PUA, punicic acid]
NF-κB activity ([3]; Nlrx1-/- BMDMs): abrogates the effect
NF-κB activity ([3]; wild type BMDMs): suppressed the NF-κB activity
disease activity (DSS-induced colitis; Nlrx1-/- mice): no observable inhibition of colitis
TNFα mRNA expression in whole colon (DSS-induced colitis; [5]): overall unaffected
colon histopathology (inflammatory amelioration) (DSS-induced colitis; [5]): failed to show any inflammatory amelioration
disease activity (DSS-induced colitis; WT mice): significant symptom regulation
TNFα mRNA expression in whole colon (DSS-induced colitis; [6]): significantly lower
colon histopathology scores (epithelial erosion, leukocytic infiltration, mucosal thickening) (DSS-induced colitis; [6]): significantly lower scores
binding and activation of PPARγ (PPARγ): robustly bind and activate PPARγ
effect on colitis ([2]; DSS-induced colitis and spontaneous pan-enteritis in IL-10−/− mice): ameliorate DSS-induced colitis and spontaneous pan-enteritis

The remaining lines, values behind:

Molecule: COc1cc(CCCCCCCCCCCCCCc2cc(OC)cc(OC)c2)cc(OC)c1 [1,14-bis (3,b-dimethoxypheny1)-tetradecane, reference compound]
binding to cNLRX1 by SPR (in words) (cNLRX1 (wild type); ssRNA 0.5-8 μM, negative control injected at 20 μM): failed to bind cNLRX1; also recorded: No binding was observed

Molecule: CC/C=C\C/C=C\C/C=C\C/C=C\C/C=C\C/C=C\CCC(=O)O [DHA, docosahexaenoic acid]
Kd (cNLRX1 (wild type); SPR, cNLRX1 WT, read-out: equilibrium constant of dissociation (KD)): 2.3 µM
NF-κB activity ([3]; Nlrx1-/- BMDMs): abrogates the effect
NF-κB activity ([3]; wild type BMDMs): suppressed the NF-κB activity

B1: C-terminal fragment of the human NLRX1 (cNLRX1), AA 667-970 (domain or fragment, UniProt Q86UT6 667-970, looked up)
chain: RQVLPPSELLDHLFFHYEFQNQRFSAEVLSSLRQLNLAGVRMTPVKCTVVAAVLGSGRHALDEVNLASCQLDPAGLRTLLPVFLRARKLGLQLNSLGPEACKDLRDLLLHDQCQITTLRLSNNPLTAAGVAVLMEGLAGNTSVTHLSLLHTGLGDEGLELLAAQLDRNRQLQELNVAYNGAGDTAALALARAAREHPSLELLHLYFNELSSEGRQVLRDLGGAAEGGARVVVSLTEGTAVSEYWSVILSEVQRNLNSWDRARVQRHLELLLRDLEDSRGATLNPWRKAQLLRVEGEVRALLEQL
notes: NLRX1, human, C-terminal fragment, AA 667-970; Cloned into pPinkHC-Alpha-SDK; The vector may add a secretion signal, but the protein was purified from lysed cells; also called cNLRX1 wildtype; cNLRX1 (WT)
binding result [4]: binds
